US5925769A, “Acetylenic 1,5-diarylpyrazoles as antiinflammatory agents” (Ortho Pharmaceutical, Corp., priority 1998, dated 1999)

How the values were obtained:
[1] = molecular target: T1, CO (Rattus norvegicus, UniProt Q63921); assay: Procedure II: CO activity in broken RBL-1 cells (homogenate supernatant); type: biochemical; details: RBL-1 broken cell supernatant; for inhibition at 10 µM: 20 min, @ 10 .quadrature.M, read-out: Proc. II CO % inhibition; for IC50: read-out: Proc. II CO IC50
T1 construct: the supernatant was saved as the source of enzymes; endogenous in cells; host or cells: RBL-1 (rat basophilic leukemia) cells
T1 sequence (Q63921 27-602): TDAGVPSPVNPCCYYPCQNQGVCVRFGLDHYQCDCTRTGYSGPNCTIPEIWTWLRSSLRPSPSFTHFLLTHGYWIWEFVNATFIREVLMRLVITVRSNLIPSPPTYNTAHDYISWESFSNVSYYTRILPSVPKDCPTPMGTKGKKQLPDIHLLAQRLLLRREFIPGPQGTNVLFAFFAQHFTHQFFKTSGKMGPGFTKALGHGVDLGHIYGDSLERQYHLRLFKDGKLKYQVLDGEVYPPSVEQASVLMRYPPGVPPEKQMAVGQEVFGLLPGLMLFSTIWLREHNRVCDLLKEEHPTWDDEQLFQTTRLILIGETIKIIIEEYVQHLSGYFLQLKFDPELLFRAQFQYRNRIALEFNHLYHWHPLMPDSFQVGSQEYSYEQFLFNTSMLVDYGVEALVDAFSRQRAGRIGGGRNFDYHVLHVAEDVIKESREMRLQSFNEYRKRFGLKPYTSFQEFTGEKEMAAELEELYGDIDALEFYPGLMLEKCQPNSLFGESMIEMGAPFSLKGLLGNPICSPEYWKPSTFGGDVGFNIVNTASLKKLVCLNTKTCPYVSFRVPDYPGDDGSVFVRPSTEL
Description: (§1) Procedure II was used to assess LO and CO activity. Rat basophilic leukemia cells (RBL-1; 5×10^7 viable cells/mL) were disrupted by homogenization on ice (four 20 sec bursts) with a Brinkman polytron. […] The homogenate was then centrifuged at 9,220×g for 48 minutes at 4° C. The pellet was discarded and the supernatant was saved as the source of enzymes. The supernatant was pre-incubated for five minutes at 37° C. in the presence of 2 mM of CaCl2 and compound or vehicle (1% DMSO). The conversion of AA into products by CO and LO was initiated by adding 10 μL (50 μCi) of 1-^14 C-AA to each tube and incubated at 37° C. for 20 minutes. The reaction was stopped by adjusting the pH of each sample to 3 to 3.5 with 2M formic acid. Samples were extracted with three volumes of chloroform to isolate the products of 5-LO formed during the reaction. Fractions were dried under nitrogen, then resuspended in 40 μL of chloroform and spotted onto silica gel HL plates. The plates were developed in A-9 solvent. The dried plates were analyzed using a Bioscan Imaging TLC scanner to determine the percentage of radiolabelled AA converted to 5-HETE (LO product) in each sample. The percentage of inhibition was calculated by:
(§2) [1-(5-HETE test)]/5-HETE control×100=% inhibition
(§3) The IC50 was determined using a curve fit in Cricket Graph (Computer Associated), which provided the equation of the regressed line used in the calculation.

[2] = molecular target: T2, 5-LO (Rattus norvegicus, UniProt P12527); assay: Procedure II: 5-LO activity (5-HETE) in broken RBL-1 cells (homogenate supernatant); type: biochemical; details: RBL-1 broken cell supernatant; for inhibition at 10 µM: 20 min, @ 10 .quadrature.M, read-out: Proc. II 5-LO % inhibition; for IC50: read-out: Proc. II 5-LO IC50
T2 construct: the supernatant was saved as the source of enzymes; endogenous in cells; host or cells: RBL-1 (rat basophilic leukemia) cells
T2 sequence (P12527 1-673): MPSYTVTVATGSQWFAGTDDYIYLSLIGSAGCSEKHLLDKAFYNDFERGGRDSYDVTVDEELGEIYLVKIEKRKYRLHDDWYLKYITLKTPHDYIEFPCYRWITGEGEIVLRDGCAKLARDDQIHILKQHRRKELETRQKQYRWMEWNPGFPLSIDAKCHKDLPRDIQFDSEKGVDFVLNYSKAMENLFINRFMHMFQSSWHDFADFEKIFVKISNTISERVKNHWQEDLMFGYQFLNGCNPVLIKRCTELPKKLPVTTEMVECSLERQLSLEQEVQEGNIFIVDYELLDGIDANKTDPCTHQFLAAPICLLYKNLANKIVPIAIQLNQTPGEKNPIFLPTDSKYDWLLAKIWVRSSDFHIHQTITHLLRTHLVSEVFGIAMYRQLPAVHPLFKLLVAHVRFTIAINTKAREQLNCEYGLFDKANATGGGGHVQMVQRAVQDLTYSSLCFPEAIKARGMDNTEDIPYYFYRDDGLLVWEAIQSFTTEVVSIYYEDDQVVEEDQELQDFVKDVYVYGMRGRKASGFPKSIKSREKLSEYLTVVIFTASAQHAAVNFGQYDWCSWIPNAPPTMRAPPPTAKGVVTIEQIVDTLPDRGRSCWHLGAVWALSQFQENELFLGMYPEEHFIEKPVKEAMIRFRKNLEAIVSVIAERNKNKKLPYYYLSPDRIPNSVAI
Description: as §1, §2, §3

[3] = molecular target: T2, 5-LO; assay: Procedure III: 5-LO (5-HETE) in intact RBL-1 cells; type: cell-based; details: calcium ionophore A 23187, read-out: Proc. III 5-LO IC50
Description: as §3
(§4) In Procedure III, the ability to inhibit 5-LO and CO in intact RBL-1 cells was also evaluated. […] Cells were collected by centrifugation, washed once in HBSS, and resuspended at a concentration of 1×10^5 cells/mL. Cells were incubated in the presence of vehicle or drug then centrifuged at 800×g for 10 minutes at 4° C. The supernatant was removed by aspiration and the cells were resuspended in 0.5 mL of HBSS. […] The conversion of AA to 5-LO products was initiated by the addition of 10 μL (50 μCi) of 1-^14 C-AA. Products were isolated by acidification and extraction, followed by thin layer chromatography analysis as described above. Radioactive areas corresponding to authentic 5-LO (5-HETE) and CO (PgD2) products were quantitated by the Bioscan 2000 Imaging System and the IC50 was calculated as above.

[4] = molecular target: T3, Sheep seminal vesicle (SSV) cyclooxygenase (Ovis aries, UniProt P05979); assay: Procedure I: inhibition of sheep seminal vesicle (SSV) cyclooxygenase; type: biochemical; details: SSV cyclooxygenase; for IC50: read-out: Proc. I IC50; for inhibition at 10 µM: 20 min, @ 10 .quadrature.M, read-out: Proc. I % inhibition
T3 construct: Sheep seminal vesicle (SSV) cyclooxygenase (95% pure); purchased Biomol (Plymouth Meeting, PA); host or cells: sheep seminal vesicle
T3 sequence (P05979 25-600): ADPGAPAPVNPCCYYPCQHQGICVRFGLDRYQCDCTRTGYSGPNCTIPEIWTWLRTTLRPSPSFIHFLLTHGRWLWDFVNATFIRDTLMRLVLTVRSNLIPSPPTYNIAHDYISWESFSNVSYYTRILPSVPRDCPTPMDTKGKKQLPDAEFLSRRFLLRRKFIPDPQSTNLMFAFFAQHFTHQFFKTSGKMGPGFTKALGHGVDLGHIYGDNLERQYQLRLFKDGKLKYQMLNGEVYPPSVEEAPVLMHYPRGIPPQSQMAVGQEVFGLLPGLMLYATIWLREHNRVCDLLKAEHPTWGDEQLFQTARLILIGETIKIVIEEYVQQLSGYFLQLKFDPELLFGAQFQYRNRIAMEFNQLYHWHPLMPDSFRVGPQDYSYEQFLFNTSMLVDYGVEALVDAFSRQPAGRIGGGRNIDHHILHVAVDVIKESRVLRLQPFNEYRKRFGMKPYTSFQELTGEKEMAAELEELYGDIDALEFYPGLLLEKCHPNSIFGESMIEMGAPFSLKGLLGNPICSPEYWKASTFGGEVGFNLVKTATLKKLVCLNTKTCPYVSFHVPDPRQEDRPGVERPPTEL
Description: Procedure I was used to determine the ability of the compounds to inhibit cyclooxygenase. […] The enzyme was divided into 200 μL aliquots, snap frozen with liquid N2, and stored at -70° C. until immediately prior to use. […] The tubes were mixed on a vortex shaker, preincubated for 5 min at 37° C. prior to the initiation of the reaction. The reaction was started by the addition of [^14 C]-arachidonic acid (1-^14 C-AA, Amersham, Arlington Heights, Ill.) in 10 μL of methanol. Tubes were again vortexed and incubated in a water bath for 20 minutes after which the tubes were removed and the reaction stopped by acidification with the addition of 1 mL 2M formic acid. Lipophilic products were extracted with 3 mL chloroform and concentrated to dryness under N2. Each pellet was reconstituted with 40 μL of chloroform and spotted on a Whatman Silicon thin-layer chromatography plate and developed in a chromatography tank containing A-9 solvent (11:5:2:1 V:V:VV, ethyl acetate:trimethyl-pentane:acetic acid:double distilled-H2 O). Radioactive cyclooxygenase products (prostaglandin D2, prostaglandin E2, etc.) were measured using a Bioscan System 200 Imaging Scanner. Inhibition of enzyme activity was calculated by comparing the areas under the curve produced in the presence or absence of test compound.

[5] = molecular target: T1, CO; assay: Procedure III: CO (PgD2) in intact RBL-1 cells; type: cell-based; details: calcium ionophore A 23187, read-out: Proc. III CO IC50
Description: as §3, §4

Row | SMILES | inhibition at 10 µM [1] | inhibition at 10 µM [2] | IC50 [3] | IC50 [4] | IC50 [5] | IC50 [1] | IC50 [2] | inhibition at 10 µM [4]
1 | COc1ccc(-n2nc(C#CC(C)N(O)C(=O)c3cccnc3)cc2-c2ccc(C)cc2)cc1 (stereo not shown) [Cpd 26] | 54% | 88% | 25400 nM | 6000 nM | 11500 nM | – | – | –
2 | COC(=O)N(O)C(C)C#Cc1cc(-c2ccc(C)cc2)n(-c2ccc(OC)cc2)n1 (stereo not shown) [Cpd 27] | – | – | 7100 nM | 530 nM | 490 nM | 140 nM | 280 nM | –
3 | CCC(C#Cc1cc(-c2ccc(C)cc2)n(-c2ccc(OC)cc2)n1)N(O)C(C)=O (stereo not shown) [Cpd 28, N-acetyl-N-(1-(1-(4-methoxyphenyl)-5-(4-methylphenyl)pyrazol-3-yl)-1-pentyn-3-yl)hydroxylamine] | – | – | 10700 nM | 430 nM | 220 nM | 10 nM | 70 nM | –
4 | CCc1ccc(-c2cc(C#CC(C)N(O)C(C)=O)nn2-c2ccc(OC)cc2)cc1 (stereo not shown) [Cpd 29, N-acetyl-N-(1-(5-(4-ethylphenyl)-1-(4-methoxyphenyl)pyrazol-3-yl)-1-butyn-3-yl)hydroxylamine] | – | – | 11900 nM | 2510 nM | 340 nM | 60 nM | 270 nM | –
5 | CCc1ccc(-c2cc(C#CC(C)N(O)C(=O)C(C)C)nn2-c2ccc(OC)cc2)cc1 (stereo not shown) [Cpd 30, N-isobutyryl-N-(1-(5-(4-ethylphenyl)-1-(4-methoxyphenyl)pyrazol-3-yl)-1-butyn-3-yl)hydroxylamine] | 73% | 93% | 13100 nM | 590 nM | 180 nM | – | – | –
6 | CCc1ccc(-c2cc(C#CC(C)N(O)C(=O)CCl)nn2-c2ccc(OC)cc2)cc1 (stereo not shown) [Cpd 31] | 86% | 100% | 36800 nM | 6100 nM | 1700 nM | – | – | –
7 | CCOC(=O)CCC(=O)N(O)C(C)C#Cc1cc(-c2ccc(CC)cc2)n(-c2ccc(OC)cc2)n1 (stereo not shown) [Cpd 32] | 52% | 97% | 5100 nM | – | 14000 nM | – | – | 3%
8 | CCc1ccc(-c2cc(C#CC(C)N(O)C(=O)OC)nn2-c2ccc(OC)cc2)cc1 (stereo not shown) [Cpd 34] | 72% | 78% | 57400 nM | – | 750 nM | – | – | 21%
9 | COc1ccc(-n2nc(C#CC(C)N(O)C(=O)c3ccccc3)cc2-c2ccc(Cl)cc2)cc1 (stereo not shown) [Cpd 40] | – | – | 1800 nM | – | 5500 nM | 14900 nM | 920 nM | 5%
10 | COC(=O)N(O)C(C)C#Cc1cc(-c2ccc(Cl)cc2)n(-c2ccc(OC)cc2)n1 (stereo not shown) [Cpd 41, N-methoxycarbony-N-(1-(5-(4-chlorophenyl)-1-(4-methoxyphenyl)pyrazol-3-yl)-1-butyn-3-yl)hydroxylamine] | 84% | 77% | 8700 nM | 1620 nM | 290 nM | – | – | –
11 | COc1ccc(-n2nc(C#CC(C)N(O)C(=O)Cn3ccnc3)cc2-c2ccc(C)cc2)cc1 (stereo not shown) [Cpd 43, N-(imidazol-1-yl)acetyl-N-(1-(1-(4-methoxyphenyl)-5-(4-methylphenyl)pyrazol-3-yl)-1-butyn-3-yl)hydroxylamine] | 13% | 67% | 38700 nM | 10000 nM | 3600 nM | – | – | –
